Tests used:
Assay in all cases: Selective postemergence, track sprayer
Assay type in all cases: in vivo
Red Top = system: Red Top
Description: (§1) Representative compositions of the present invention were evaluated for the postemergence control of species of plants listed in Table A. In these evaluations, pots of the plant species listed in Table A, grown to a height of about 10 cms, were used. Aqueous spray compositions, containing various amounts of 2-[4-(2-fluoro-4-trifluoromethylphenoxy)-phenoxy]propionic acid methy ester, i.e., 125 ppm, 62.5 ppm, 31.25 ppm, 15.6 ppm, 7.8 ppm and 3.9 ppm, respectively, were applied to separate pots. The spray compositions were made by mixing the active ingredient in acetone to 1/2 the final volume, i.e., twice the final concentration. An equal amount of water was added to the active ingredient/acetone mixture wherein the water contained 0.1 percent by weight of TWEEN® 200 surfactant. The application to the plants was made to the point of run-off and was carried out with conventional spraying equipment. Other pots were sprayed with similar compositions containing no toxicant to serve as controls. Thereafter, the pots were maintained under conditions conducive for plant growth. Two weeks after treatment, the pots were examined for plant growth and evaluated on a scale of 0 to 100 where 0 represents no effect and 100 represents complete kill. The results of the examination of the treated pots are set forth below in Table A.
(§2) To further define the selective postemergence herbicidal characteristics of compounds of the present invention, chemicals were applied to additional species of grasses as listed in Table F. Chemicals evaluated were 2-[4-(4-bromo-2-fluorophenoxy)phenoxy]propionic acid methyl ester and its R isomer. Treatment conditions were similar to those described in Example A except that chemicals were delivered through a track sprayer set to deliver the appropriate dosages in 280.6 L/hectare of water containing 0.1% Tween-20 surfactant.

Cheatgrass = system: Cheatgrass
Description: as §1, §2

Annual Bluegrass = system: Annual Bluegrass
Description: as §1, §2

Johnsongrass = system: Johnsongrass
Description: as §1, §2

Goosegrass = system: Goosegrass
Description: as §1, §2

Orchardgrass = system: Orchardgrass
Description: as §1, §2

Yellow Foxtail = system: Yellow Foxtail
Description: as §1, §2

Sprangletop = system: Sprangletop
Description: as §1, §2

Downey Brome = system: Downey Brome
Description: as §1, §2

Tall Fescue = system: Tall Fescue
Description: as §1, §2

Fall Panicum = system: Fall Panicum
Description: as §1, §2

Wild Oats = system: Wild Oats
Description: as §1, §2

SMILES: COC(=O)[C@@H](C)Oc1ccc(Oc2ccc(Br)cc2F)cc1 [4-Bromo-(R-Enantiomer), R enantiomer of 2-[4-(4-bromo-2-fluorophenoxy)phenoxy]propionic acid methyl ester]
- Percent Control (Red Top; 0.00055 kgs/hectare): 0%
- Percent Control (Red Top; 0.0011 kgs/hectare): 0%
- Percent Control (Red Top; 0.0023 kgs/hectare): 0%
- Percent Control (Red Top; 0.0045 kgs/hectare): 0%
- Percent Control (Red Top; 0.009 kgs/hectare): 0%
- Percent Control (Red Top; 0.018 kgs/hectare): 0%
- Percent Control (Red Top; 0.035 kgs/hectare): 30%
- Percent Control (Red Top; 0.07 kgs/hectare): 90%
- Percent Control (Red Top; 0.14 kgs/hectare): 90%
- Percent Control (Red Top; 0.28 kgs/hectare): 90%
- Percent Control (Cheatgrass; 0.00055 kgs/hectare): 0%
- Percent Control (Cheatgrass; 0.0011 kgs/hectare): 0%
- Percent Control (Cheatgrass; 0.0023 kgs/hectare): 0%
- Percent Control (Cheatgrass; 0.0045 kgs/hectare): 0%
- Percent Control (Cheatgrass; 0.009 kgs/hectare): 0%
- Percent Control (Cheatgrass; 0.018 kgs/hectare): 0%
- Percent Control (Cheatgrass; 0.035 kgs/hectare): 0%
- Percent Control (Cheatgrass; 0.07 kgs/hectare): 0%
- Percent Control (Cheatgrass; 0.14 kgs/hectare): 0%
- Percent Control (Cheatgrass; 0.28 kgs/hectare): 0%
- Percent Control (Annual Bluegrass; 0.00055 kgs/hectare): 0%
- Percent Control (Annual Bluegrass; 0.0011 kgs/hectare): 0%
- Percent Control (Annual Bluegrass; 0.0023 kgs/hectare): 0%
- Percent Control (Annual Bluegrass; 0.0045 kgs/hectare): 0%
- Percent Control (Annual Bluegrass; 0.009 kgs/hectare): 0%
- Percent Control (Annual Bluegrass; 0.018 kgs/hectare): 0%
- Percent Control (Annual Bluegrass; 0.035 kgs/hectare): 0%
- Percent Control (Annual Bluegrass; 0.07 kgs/hectare): 0%
- Percent Control (Annual Bluegrass; 0.14 kgs/hectare): 0%
- Percent Control (Annual Bluegrass; 0.28 kgs/hectare): 0%
- Percent Control (Johnsongrass; 0.00055 kgs/hectare): 0%
- Percent Control (Johnsongrass; 0.0011 kgs/hectare): 0%
- Percent Control (Johnsongrass; 0.0023 kgs/hectare): 0%
- Percent Control (Johnsongrass; 0.0045 kgs/hectare): 0%
- Percent Control (Johnsongrass; 0.009 kgs/hectare): 0%
- Percent Control (Johnsongrass; 0.018 kgs/hectare): 0%
- Percent Control (Johnsongrass; 0.035 kgs/hectare): 0%
- Percent Control (Johnsongrass; 0.07 kgs/hectare): 20%
- Percent Control (Johnsongrass; 0.14 kgs/hectare): 40%
- Percent Control (Johnsongrass; 0.28 kgs/hectare): 70%
- Percent Control (Goosegrass; 0.00055 kgs/hectare): 0%
- Percent Control (Goosegrass; 0.0011 kgs/hectare): 0%
- Percent Control (Goosegrass; 0.0023 kgs/hectare): 0%
- Percent Control (Goosegrass; 0.0045 kgs/hectare): 20%
- Percent Control (Goosegrass; 0.009 kgs/hectare): 70%
- Percent Control (Goosegrass; 0.018 kgs/hectare): 50%
- Percent Control (Goosegrass; 0.035 kgs/hectare): 70%
- Percent Control (Goosegrass; 0.07 kgs/hectare): 70%
- Percent Control (Goosegrass; 0.14 kgs/hectare): 80%
- Percent Control (Goosegrass; 0.28 kgs/hectare): 80%
- Percent Control (Orchardgrass; 0.00055 kgs/hectare): 0%
- Percent Control (Orchardgrass; 0.0011 kgs/hectare): 0%
- Percent Control (Orchardgrass; 0.0023 kgs/hectare): 0%
- Percent Control (Orchardgrass; 0.0045 kgs/hectare): 0%
- Percent Control (Orchardgrass; 0.009 kgs/hectare): 0%
- Percent Control (Orchardgrass; 0.018 kgs/hectare): 0%
- Percent Control (Orchardgrass; 0.035 kgs/hectare): 0%
- Percent Control (Orchardgrass; 0.07 kgs/hectare): 0%
- Percent Control (Orchardgrass; 0.14 kgs/hectare): 0%
- Percent Control (Orchardgrass; 0.28 kgs/hectare): 50%
- Percent Control (Yellow Foxtail; 0.00055 kgs/hectare): 0%
- Percent Control (Yellow Foxtail; 0.0011 kgs/hectare): 0%
- Percent Control (Yellow Foxtail; 0.0023 kgs/hectare): 20%
- Percent Control (Yellow Foxtail; 0.0045 kgs/hectare): 20%
- Percent Control (Yellow Foxtail; 0.009 kgs/hectare): 50%
- Percent Control (Yellow Foxtail; 0.018 kgs/hectare): 90%
- Percent Control (Yellow Foxtail; 0.035 kgs/hectare): 100%
- Percent Control (Yellow Foxtail; 0.07 kgs/hectare): 100%
- Percent Control (Yellow Foxtail; 0.14 kgs/hectare): 100%
- Percent Control (Yellow Foxtail; 0.28 kgs/hectare): 100%
- Percent Control (Sprangletop; 0.00055 kgs/hectare): 0%
- Percent Control (Sprangletop; 0.0011 kgs/hectare): 20%
- Percent Control (Sprangletop; 0.0023 kgs/hectare): 100%
- Percent Control (Sprangletop; 0.0045 kgs/hectare): 100%
- Percent Control (Sprangletop; 0.009 kgs/hectare): 100%
- Percent Control (Sprangletop; 0.018 kgs/hectare): 100%
- Percent Control (Sprangletop; 0.035 kgs/hectare): 100%
- Percent Control (Sprangletop; 0.07 kgs/hectare): 100%
- Percent Control (Sprangletop; 0.14 kgs/hectare): 100%
- Percent Control (Sprangletop; 0.28 kgs/hectare): 100%
- Percent Control (Downey Brome; 0.00055 kgs/hectare): 0%
- Percent Control (Downey Brome; 0.0011 kgs/hectare): 0%
- Percent Control (Downey Brome; 0.0023 kgs/hectare): 0%
- Percent Control (Downey Brome; 0.0045 kgs/hectare): 0%
- Percent Control (Downey Brome; 0.009 kgs/hectare): 0%
- Percent Control (Downey Brome; 0.018 kgs/hectare): 0%
- Percent Control (Downey Brome; 0.035 kgs/hectare): 0%
- Percent Control (Downey Brome; 0.07 kgs/hectare): 0%
- Percent Control (Downey Brome; 0.14 kgs/hectare): 0%
- Percent Control (Downey Brome; 0.28 kgs/hectare): 0%
- Percent Control (Tall Fescue; 0.00055 kgs/hectare): 0%
- Percent Control (Tall Fescue; 0.0011 kgs/hectare): 0%
- Percent Control (Tall Fescue; 0.0023 kgs/hectare): 0%
- Percent Control (Tall Fescue; 0.0045 kgs/hectare): 20%
- Percent Control (Tall Fescue; 0.009 kgs/hectare): 50%
- Percent Control (Tall Fescue; 0.018 kgs/hectare): 70%
- Percent Control (Tall Fescue; 0.035 kgs/hectare): 80%
- Percent Control (Tall Fescue; 0.07 kgs/hectare): 90%
- Percent Control (Tall Fescue; 0.14 kgs/hectare): 90%
- Percent Control (Tall Fescue; 0.28 kgs/hectare): 90%
- Percent Control (Fall Panicum; 0.00055 kgs/hectare): 20%
- Percent Control (Fall Panicum; 0.0011 kgs/hectare): 30%
- Percent Control (Fall Panicum; 0.0023 kgs/hectare): 50%
- Percent Control (Fall Panicum; 0.0045 kgs/hectare): 80%
- Percent Control (Fall Panicum; 0.009 kgs/hectare): 80%
- Percent Control (Fall Panicum; 0.018 kgs/hectare): 100%
- Percent Control (Fall Panicum; 0.035 kgs/hectare): 100%
- Percent Control (Fall Panicum; 0.07 kgs/hectare): 100%
- Percent Control (Fall Panicum; 0.14 kgs/hectare): 100%
- Percent Control (Fall Panicum; 0.28 kgs/hectare): 100%
- Percent Control (Wild Oats; 0.00055 kgs/hectare): 0%
- Percent Control (Wild Oats; 0.0011 kgs/hectare): 0%
- Percent Control (Wild Oats; 0.0023 kgs/hectare): 0%
- Percent Control (Wild Oats; 0.0045 kgs/hectare): 0%
- Percent Control (Wild Oats; 0.009 kgs/hectare): 20%
- Percent Control (Wild Oats; 0.018 kgs/hectare): 20%
- Percent Control (Wild Oats; 0.035 kgs/hectare): 40%
- Percent Control (Wild Oats; 0.07 kgs/hectare): 70%
- Percent Control (Wild Oats; 0.14 kgs/hectare): 70%
- Percent Control (Wild Oats; 0.28 kgs/hectare): 95%
